Laboratory results as given in patent EP4711365A1 (Shanghai Hansoh Biomedical Co., Ltd., priority 2023, dated 2024).

Experiments:
[1] = Pharmacokinetic assay in Wistar rats, oral; conditions: rat, plasma, 30 mg/kg
Method: Experimental objective: to study the pharmacokinetic behaviours of the compounds of the present invention in the body (plasma) of Wistar rats as test animals after oral administration at a dose of 30 mg/kg. • 2. Experimental scheme • 2.1 Test drugs: the examples of the present invention, prepared in house. • 2.2 Test animals: Wistar rats (female, 3 rats per group), from Beijing Vital River Laboratory Animal Technology Co., Ltd., with the animal production license no.
Solutol HS15 was melted in a water bath at 50-60°C, and then 50 mL of the melted Solutol HS15 was added to 450 mL of ultrapure water. The mixture was stirred and sonicated to obtain 500 mL of 10% Solutol HS15 solution. The compound was weighed, and according to the total administration volume, 30% PEG solution was first added. The mixture was shaken uniformly and sonicated until a clear solution was obtained. Subsequently, 70% (10% Solutol) in water was added, resulting in a colourless and clear solution with a concentration of 3.0 mg/mL.
2.4 Administration scheme: After overnight fasting, 3 female Wistar rats per group were administered orally (PO) at a dose of 30 mg/kg with an administration volume of 10 mL/kg.
• 1) To 50 uL of plasma sample was added 250 uL of acetonitrile for precipitation, and the mixture was mixed and then centrifuged at 4°C at 4000 rpm for 20 minutes. • 2) The treated supernatant solution was taken and subjected to LC/MS/MS to analyse the concentration of the test compounds. LC/MS/MS analysis instrument: AB Sciex API-4000 Qtrap-Shimadzu Controller-CBM20A.
• Chromatographic column: Waters Xbridge C18 3.5 um 2.1*50 mm • Mobile phase: solution A: 0.1% formic acid in water, and solution B: 0.1% formic acid in acetonitrile • Flow rate: 0.6 mL/min • Elution time: 0-3.5 minutes, with eluents as follows:

[2] = target: T1, human IL-17RA and IL-17A proteins (Homo sapiens, UniProt Q16552); experiment: Competitive ELISA: blocking of binding between human IL-17RA and IL-17A; conditions: coated IL-17A, IL-17RA 5 nM
T1 sequence (Q16552 24-155): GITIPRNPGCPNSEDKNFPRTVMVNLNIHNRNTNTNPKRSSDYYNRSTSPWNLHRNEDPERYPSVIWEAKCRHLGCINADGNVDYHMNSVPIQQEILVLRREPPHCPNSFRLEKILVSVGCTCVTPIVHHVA
Method: Test example 1 Assay for competitive binding effect between compounds of the present invention and human IL-17 receptor for ligand
1. Experimental objective: to quantitatively determine the blocking effect of the compound on the binding between human IL-17RA and IL-17A proteins using competitive ELISA under in vitro conditions. 2. Experimental instruments and reagents: 2.1 Instruments:
2.2 Reagents: 3. Experimental method: IL-17A at 0.0625 µg/mL was coated in a 96-well plate at 4°C overnight at 100 µL per well. The plate was washed with PBST (300 µL/well x 4), and then blocked at 24°C for 2 h by adding 300 µL of ELISA Blocker blocking buffer to each well. The plate was further washed under the same conditions. 80 µL of PBS solution containing 1% BSA and 10 µL of 10× test compound solution were added to each well and mixed uniformly, and then the mixture was incubated at room temperature for 1 hour. After that, 10 µL of IL-17RA solution was added to a final concentration of 5 nM and mixed uniformly, and then the mixture was incubated at 24°C for 1 h. The corresponding concentration and volume of DMSO solution without compounds was added to positive control wells, and 1% BSA solution without IL-17RA was added to negative control wells.
After the plate was washed four times, 100 µL of the anti-Fc tag HRP-conjugated antibody was added, and the mixture was incubated at 37°C for 1 h. After the plate was washed four times, 100 µL of TMB substrate was added to each well, and the mixture was incubated at 37°C in the dark. After colour development was completed, the reaction was terminated by adding 100 µL of stop solution to each well, and the absorbance was measured at wavelengths of 450 nm and 570 nm using a microplate reader.
• 1) Inhibition rate (%): The original data (OD450-OD570) was calculated according to the following formula to obtain the inhibition rate. Inhibition rate% = [(average value of positive control wells - value of sample wells)/(average value of positive control wells - average value of negative control wells)] × 100, where the positive control wells are wells without compounds, and the negative control wells are wells without IL-17RA protein solution. • 2) Curve fitting: Log(inhibitor) vs. response -- Variable slope (four parameters) in GraphPad Prism 8 was used for fitting equation analysis of the compound concentration and the corresponding inhibition rate, and the curve was fitted to obtain the IC50 value of the compound. The fitting calculation equation was Y = Bottom + (Top - Bottom) / (1 + 10^((LogIC50 - X) * HillSlope)).

[3] = tested on: Groα secretion by HT-29 cells; experiment: Inhibition of Groα secretion by HT-29 cells stimulated with IL-17A (ELISA); format: cell-based, Human; conditions: Homo sapiens, IL-17A 30 ng/ml, 48 hours, Groα in supernatant
Method: Test example 2 Assay for inhibitory effect of compounds of the present invention against Groα secretion by HT-29 cells
Experimental objective: to measure the inhibitory effect of the compounds against Groα secretion by HT-29 cells, thereby evaluating the inhibition of the compounds on IL-17A pathway.
Experimental method: A cell suspension at 50,000 cells/ml was prepared, and 200 µl of the cell suspension was added to each well of a 96-well plate, i.e., 10,000 cells/well. The plate was cultured overnight. In the 96-well V-bottom plate, 5 mM compound solution was serially diluted 3-fold using DMSO, and the compound from each well was diluted 100-fold using a complete culture medium. IL-17A protein (R&D, #BT7955-025/CF) with a stock concentration of 100 µg/ml was diluted 333.33-fold using a complete culture medium. The compound and IL-17A were mixed at a volume ratio of 1:1 and incubated at 37°C for 30 minutes. 50 µl of a mixture of the compound and IL-17A was added to cell wells, and the final concentration of IL-17A protein was 30 ng/ml.
The mixture was incubated in a 37°C, 5% CO2 cell culture incubator for 48 hours. The concentration of Groα in the supernatant was determined by ELISA method using Human Groα Valukin Elisa kit (Biotechne, # VAL139), and the absorbance intensity at 450 nm was measured using a microplate reader (PE, EnVision2105). Data were analysed using GraphPad Prism 8.3.0.
Experimental data processing method: Data were analysed using GraphPad Prism 8.3.0.
Inhibition rate% = [(average value of positive control wells - value of sample wells)/(average value of positive control wells - average value of negative control wells)] × 100%, where the sample wells are wells containing cells plus compounds at different concentration gradients, the positive control wells are wells containing cells plus IL-17A, and the negative control wells are wells containing culture medium plus IL-17A.
Curve fitting: The IC50 value was obtained by curve fitting based on the inhibition rate (%) at each concentration using the log(inhibitor) vs. responseVariable slope (four parameters) in GraphPad Prism 6.0, and the calculation equation was Y = Bottom + (Top-Bottom)/(1+10^((LogIC50-X)*HillSlope)).

SMILES | IC50 [2] [nM] | IC50 [3] [nM] | other results
[2H]C1([2H])NC(=O)N([C@H](COC)c2cnc(NC(=O)[C@@H](NC(=O)OC3CC3)[C@H]3CC[C@H](C)CC3)s2)C([2H])([2H])C1(F)F [Example 559] | 4.3 | – | AUC(0-t) [1]: 12700 ng·h/mL; Cmax [1]: 2190 ng/mL; Tmax [1]: 2 h; half-life [1]: 2.7 h
C[C@H]1CC[C@H]([C@H](NC(=O)C(F)(F)C2CC2)C(=O)Nc2ncc([C@@H](CN3CCO[C@H](CF)C3)N3CC(F)(F)CNC3=O)s2)CC1 [Example 700] | 3.4 | 2.6 | –
[2H]C([2H])([2H])O[C@H]1CCN(C[C@H](c2cnc(NC(=O)[C@@H](NC(=O)C3(F)CC3)[C@H]3CC[C@H](C)CC3)s2)N2CC(F)(F)CNC2=O)C[C@H]1F [Example 782] | 4 | 4 | –
COC[C@H](c1cnc(NC(=O)[C@@H](NC(=O)C2(F)CC2)[C@H]2CC[C@H](C)CC2)s1)N1CC(F)(F)CNC1=O [Example 592] | 6.4 | – | –
C[C@@H]1CN(C[C@H](c2cnc(NC(=O)[C@@H](NC(=O)C(F)(F)C3CC3)[C@H]3CC[C@H](C)CC3)s2)N2CC(F)(F)CNC2=O)C[C@H](C)O1 [Example 725] | 5.6 | 2.5 | –
C[C@H]1CC[C@H]([C@H](NC(=O)C2(F)CC2)C(=O)Nc2ncc([C@@H](CN3CCC(F)CC3)N3CC(F)(F)CNC3=O)s2)CC1 [Example 760] | 7 | 5.7 | –
CC1CCC([C@H](NC(=O)C2(F)CC2)C(=O)Nc2ncc(C(CN3CCOCC3)N3CC(F)(F)CNC3=O)s2)CC1 (some centres unmarked) [Example 601] | 4.1 | 7.5 | –
C[C@H]1CC[C@H]([C@H](NC(=O)C2(F)CC2)C(=O)Nc2ncc([C@@H](CN3CCO[C@H](CF)C3)N3CC(F)(F)CNC3=O)s2)CC1 [Example 696, N-((S)-2-((5-((R)-1-(5,5-difluoro-2-oxotetrahydropyrimidin-1(2H)-yl)-2-((S)-2-(fluoromethyl)morpholino)ethyl)thiazol-2-yl)amino)-1-((1r,4S)-4-methylcyclohexyl)-2-oxoethyl)-1-fluorocyclopropane-1-carboxamide] | 5 | 2 | –
C[C@H]1CN(C[C@H](c2cnc(NC(=O)[C@@H](NC(=O)C3(F)CC3)[C@H]3CC[C@H](C)CC3)s2)N2CC(F)(F)CNC2=O)[C@@H](C)CO1 [Example 734] | 2.9 | 2 | –
COC1CCN(C[C@H](c2cnc(NC(=O)[C@@H](NC(=O)C3(F)CC3)[C@H]3CC[C@H](C)CC3)s2)N2CC(F)(F)CNC2=O)CC1 [Example 777] | 8 | 5.3 | –
CC[C@@H]1CN(C[C@H](c2cnc(NC(=O)[C@@H](NC(=O)C3(F)CC3)[C@H]3CC[C@H](C)CC3)s2)N2CC(F)(F)CNC2=O)CCO1 [Example 704] | 4.9 | 6.5 | –
C[C@@H]1CN(C[C@H](c2cnc(NC(=O)[C@@H](NC(=O)C3(F)CC3)[C@H]3CC[C@H](C)CC3)s2)N2CC(F)(F)CNC2=O)C[C@@H](C)O1 [Example 726] | 4.8 | 1.8 | –
C[C@H]1CC[C@H]([C@H](NC(=O)C2(F)CC2)C(=O)Nc2ncc([C@@H](CN3CCOC4(CC4)C3)N3CC(F)(F)CNC3=O)s2)CC1 [Example 721] | 4 | – | –
CC1(C)COCCN1C[C@H](c1cnc(NC(=O)[C@@H](NC(=O)C2(F)CC2)[C@H]2CC[C@H](C)CC2)s1)N1CC(F)(F)CNC1=O [Example 723] | 5 | 4 | –
C[C@@H]1COCCN1C[C@H](c1cnc(NC(=O)[C@@H](NC(=O)C2(F)CC2)[C@H]2CC[C@H](C)CC2)s1)N1CC(F)(F)CNC1=O [Example 1015] | 4 | 6 | –
C[C@H]1CC[C@H]([C@H](NC(=O)C2(F)CC2)C(=O)Nc2ncc([C@@H](CN3CCO[C@@H](CF)C3)N3CC(F)(F)CNC3=O)s2)CC1 [Example 703] | 7.5 | 7 | –
CC1(C)CN(C[C@H](c2cnc(NC(=O)[C@@H](NC(=O)C3(F)CC3)[C@H]3CC[C@H](C)CC3)s2)N2CC(F)(F)CNC2=O)CCO1 [Example 718] | 5 | 8 | –
CCc1nonc1C(=O)NC(C(=O)Nc1ncc(C(COC)N2CC(C(F)(F)F)NC2=O)s1)C1CCC(C)CC1 (centres unmarked) [Example 521] | 1.3 | 2 | –
[2H]C([2H])([2H])O[C@@H]1CCN(C[C@H](c2cnc(NC(=O)[C@@H](NC(=O)C3(F)CC3)[C@H]3CC[C@H](C)CC3)s2)N2CC(F)(F)CNC2=O)C[C@@H]1F [Example 781] | 5 | 10 | –
COC[C@H](c1cnc(NC(=O)[C@@H](NC(=O)c2nonc2C)[C@H]2CC[C@H](C)CC2)s1)n1cc(Cl)ccc1=O [Example 569] | 5 | – | –
[2H]C1([2H])NC(=O)N([C@H](COC)c2cnc(NC(=O)[C@@H](NC(=O)C3(F)CC3)[C@H]3CC[C@H](C)CC3)s2)C([2H])([2H])C1(F)F [Example 688, N-((S)-2-((5-((R)-1-(5,5-difluoro-2-carbonyltetrahydropyrimidin-1(2H)-yl-4,4,6,6-d4)-2-methoxyethyl)thiazol-2-yl)amino)-1-((1r,4S)-4-methylcyclohexyl)-2-carbonylethyl)-1-fluorocyclopropane-1-carboxamide] | 5.1 | – | –
C[C@H]1CN(C[C@H](c2cnc(NC(=O)[C@@H](NC(=O)C3(F)CC3)[C@H]3CC[C@H](C)CC3)s2)N2CC(F)(F)CNC2=O)C[C@H](C)O1 [Example 730] | 6.7 | – | –
COCC(c1cnc(NC(=O)C(NC(=O)OC2CC2)C2CCC(C)CC2)s1)N1CC(C(F)(F)F)NC1=O (centres unmarked) [Example 522] | 6.2 | – | –
C[C@H]1CC[C@H]([C@H](NC(=O)OC2CC2)C(=O)Nc2ncc([C@@H](CC3CC3)N3CC(F)(F)CNC3=O)s2)CC1 [Example 524] | 3.6 | 9.3 | –
C[C@@H]1CN(C[C@H](c2cnc(NC(=O)[C@@H](NC(=O)C(F)(F)C3CC3)[C@H]3CC[C@H](C)CC3)s2)N2CC(F)(F)CNC2=O)C[C@@H](C)O1 [Example 727] | 3.3 | 1.2 | –
C[C@H]1CN(C[C@H](c2cnc(NC(=O)[C@@H](NC(=O)C3(F)CC3)[C@H]3CC[C@H](C)CC3)s2)N2CC(F)(F)CNC2=O)CCO1 [Example 1013] | 9 | 9 | –
CCc1nonc1C(=O)N[C@H](C(=O)Nc1ncc([C@@H](C2CCOCC2)n2cc(Cl)ccc2=O)s1)[C@H]1CC[C@H](C)CC1 [Example 532] | 7.9 | 7.9 | –
C[C@@H]1CN(C[C@H](c2cnc(NC(=O)[C@@H](NC(=O)C3(F)CC3)[C@H]3CC[C@H](C)CC3)s2)N2CC(F)(F)CNC2=O)C[C@H](C)O1 [Example 724] | 6 | 4 | –
